The target of the experiment is Wild-type human active MASTL (Homo sapiens (Human), UniProt Q96GX5). Put plainly: MASTL activity assay. The format is biochemical. Particulars: ATP 18 μM, biotin tagged 40-mer ENSA peptide 10 nM, 60 minutes at room temperature, HTRF/FRET readout. The method, then:
Wild-type human active MASTL (154 pM) was incubated in assay buffer (50 mM HEPES, 100 mM NaCl, 0.1 mM EGTA, 10 mM MgCl2, 0.01% Tween-20, 0.5 mM TCEP, pH 7.5) with biotin tagged 40-mer ENSA peptide (10 nM), test compound and ATP (18 μM) for 60 minutes at room temperature. Test compounds were assayed using a 12-point dose range consisting of a 0, DMSO control and 10 sequential doses consisting from 0.0005, 0.002, 0.005, 0.014, 0.04, 0.12, 0.37, 1.11, 3.33 and 10 μM. The DMSO concentration was the same (1%) in all samples. An equal volume of detection buffer (assay buffer+267.5 pM Ab-K, 1.25 nM SA-D2, 20 mM EDTA and 400 mM KF) was added to stop the reaction to make a final volume of 20 μl, RT for 60 mins. Activity was measured using a plate reader (PerkinElmer EnSight) by the FRET signal generated between SA-D2 (streptavidin-D2) and Ab-K (anti-phospho-Serine 67 ENSA antibody (rabbit polyclonal, using standard techniques by a commercial supplier) conjugated to Cryptate). HTRF reagents (CisBio) were prepared as per the manufacturer recommendations. The 40-mer biotin-tagged ENSA peptide (synthesised by Bionics) used was based around Serine 67 on ENSA ([…]).

Chain of Wild-type human active MASTL (Q96GX5 whole entry): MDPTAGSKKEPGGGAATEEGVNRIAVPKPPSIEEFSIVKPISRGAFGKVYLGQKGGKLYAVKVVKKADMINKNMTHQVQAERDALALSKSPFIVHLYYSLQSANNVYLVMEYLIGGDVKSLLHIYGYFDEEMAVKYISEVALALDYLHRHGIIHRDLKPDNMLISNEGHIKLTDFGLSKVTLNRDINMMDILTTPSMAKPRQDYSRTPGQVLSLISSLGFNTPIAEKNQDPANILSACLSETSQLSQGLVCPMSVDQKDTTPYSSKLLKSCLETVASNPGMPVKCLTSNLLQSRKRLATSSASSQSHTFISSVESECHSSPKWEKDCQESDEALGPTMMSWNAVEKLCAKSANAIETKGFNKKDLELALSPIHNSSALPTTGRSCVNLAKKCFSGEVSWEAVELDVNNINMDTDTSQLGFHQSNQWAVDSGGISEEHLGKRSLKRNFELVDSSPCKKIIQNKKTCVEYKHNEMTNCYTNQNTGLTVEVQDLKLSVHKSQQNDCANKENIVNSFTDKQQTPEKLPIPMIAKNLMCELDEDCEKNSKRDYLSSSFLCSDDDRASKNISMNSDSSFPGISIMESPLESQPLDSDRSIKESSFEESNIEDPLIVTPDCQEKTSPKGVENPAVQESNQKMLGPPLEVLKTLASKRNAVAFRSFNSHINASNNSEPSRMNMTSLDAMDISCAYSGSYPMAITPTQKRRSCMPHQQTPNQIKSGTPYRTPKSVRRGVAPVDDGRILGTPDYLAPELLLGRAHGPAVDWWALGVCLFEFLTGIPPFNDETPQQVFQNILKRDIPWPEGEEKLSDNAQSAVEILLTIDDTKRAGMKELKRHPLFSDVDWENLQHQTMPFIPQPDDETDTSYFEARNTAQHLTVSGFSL

`CC[C@H](Nc1nc(N)nc(-c2ccc3cnc(C)n3c2)n1)c1ccc(F)nc1` (single isomer, unassigned) [Example 141B, N2-[(1R or 1S)-1-(6-fluoro-3-pyridyl)propyl]-6-(3-methylimidazo[1,5-a]pyridin-6-yl)-1,3,5-triazine-2,4-diamine] displayed an IC50 of 500 to 1000 nM.
The value for `Cc1ncc2ccc(-c3nc(N)nc(N[C@H](CC(C)C)c4c[nH]c(C(F)(F)F)n4)n3)cn12` (single isomer, unassigned) [Example 152A, 6-(3-methylimidazo[1,5-a]pyridin-6-yl)-N4-[(1S or 1R)-3-methyl-1-[2-(trifluoromethyl)-1H-imidazol-4-yl]butyl]-1,3,5-triazine-2,4-diamine] was 1 to 500 nM; that for `Cc1nc([C@H](Nc2nc(N)nc(-c3ccc4cnc(C)n4c3)n2)C(C)C)c[nH]1` (single isomer, unassigned) [Example 155A, 6-(3-methylimidazo[1,5-a]pyridin-6-yl)-N4-[(1S or 1R)-2-methyl-1-(2-methyl-1H-imidazol-4-yl)propyl]-1,3,5-triazine-2,4-diamine] was 500 to 1000 nM; that for `Cc1ncc2ccc(-c3nc(N)nc(NC[C@@H](O)c4cccc(Cl)c4Cl)n3)cn12` (single isomer, unassigned) [Example 146B, (1S or 1R)-[[4-amino-6-(3-methylimidazo[1,5-a]pyridin-6-yl)-1,3,5-triazin-2-yl]amino]-1-(2,3-dichlorophenyl) ethanol] was 1 to 500 nM.
As for `Cc1ncc2ccc(-c3nc(N)nc(N[C@@H](CC(C)C)c4c[nH]c(C(F)(F)F)n4)n3)cn12` (single isomer, unassigned) [Example 152B, 6-(3-methylimidazo[1,5-a]pyridin-6-yl)-N4-[(1S or 1R)-3-methyl-1-[2-(trifluoromethyl)-1H-imidazol-4-yl]butyl]-1,3,5-triazine-2,4-diamine], the figure is 1 to 500 nM; as for `Cc1ncc2ccc(-c3nc(N)nc(NC[C@H](O)c4cccc(Cl)c4Cl)n3)cn12` (single isomer, unassigned) [Example 146A, (1S or 1R)-[[4-amino-6-(3-methylimidazo[1,5-a]pyridin-6-yl)-1,3,5-triazin-2-yl]amino]-1-(2,3-dichlorophenyl) ethanol], 1 to 500 nM.
As for `Cc1nc([C@@H](Nc2nc(N)nc(-c3ccc4cnc(C)n4c3)n2)C(C)C)c[nH]1` (single isomer, unassigned) [Example 155B, 6-(3-methylimidazo[1,5-a]pyridin-6-yl)-N4-[(1S or 1R)-2-methyl-1-(2-methyl-1H-imidazol-4-yl)propyl]-1,3,5-triazine-2,4-diamine], the figure is 1 to 500 nM; as for `CNc1nc(NC[C@H](O)c2cccc(Cl)c2Cl)cc(-c2ccc3cnc(C)n3c2)n1` (single isomer, unassigned) [Example 143A, (1R or 1S)-1-(2,3-dichlorophenyl)-2-[[2-(methylamino)-6-(3-methylimidazo[1,5-a]pyridin-6-yl)pyrimidin-4-yl]amino]ethanol], 1 to 500 nM.
The compound `CNc1nc(N[C@@H](c2ccn(C(F)F)n2)C(C)C)nc(-c2ccc3cnn(C)c3c2)n1` (single isomer, unassigned) [Example 29A, N4-[(1S or 1R)-1-[1-(difluoromethyl)pyrazol-3-yl]-2-methyl-propyl]-N2-(trideuteriomethyl)-6-[1-(trideuteriomethyl)indazol-6-yl]-1,3,5-triazine-2,4-diamine] displayed an IC50 of 1 to 500 nM.
As for `CNc1nc(N[C@H](c2ccn(C(F)F)n2)C(C)C)nc(-c2ccc3cnn(C)c3c2)n1` (single isomer, unassigned) [Example 29B, N4-[(1S or 1R)-1-[1-(difluoromethyl)pyrazol-3-yl]-2-methyl-propyl]-N2-(trideuteriomethyl)-6-[1-(trideuteriomethyl)indazol-6-yl]-1,3,5-triazine-2,4-diamine], the figure is greater than 1000 nM; as for `Cc1ncc2ccc(-c3nc(N)nc(N[C@H](c4ccc(F)cn4)C(C)C)n3)cn12` (single isomer, unassigned) [Example 136B, N2-[(1R or 1S)-1-(5-fluoro-2-pyridyl)-2-methyl-propyl]-6-(3-methylimidazo[1,5-a]pyridin-6-yl)-1,3,5-triazine-2,4-diamine], greater than 1000 nM.
On to `Cc1ncc2ccc(-c3nc(N)nc(NC(c4c[nH]c(C(F)(F)F)n4)C4CCCCC4)n3)cn12` (single isomer, unassigned) [Example 153A, N4-[(S or R)-cyclohexyl-[2-(trifluoromethyl)-1H-imidazol-4-yl]methyl]-6-(3-methylimidazo[1,5-a]pyridin-6-yl)-1,3,5-triazine-2,4-diamine], for which the IC50 was 1 to 500 nM.
As for `CNc1nc(N[C@@H](c2c[nH]c(C(F)(F)F)n2)C(C)C)nc(-c2ccc3cnc(C)n3c2)n1` (single isomer, unassigned) [Example 149A, N2-methyl-6-(3-methylimidazo[1,5-a]pyridin-6-yl)-N4-[(1S or 1R)-2-methyl-1-[2-(trifluoromethyl)-1H-imidazol-4-yl]propyl]-1,3,5-triazine-2,4-diamine], the figure is 1 to 500 nM.
The value for `CNc1nc(NCC(O)c2cccc(Cl)c2Cl)cc(-c2ccc3cnc(C)n3c2)n1` (single isomer, unassigned) [Example 143B, (1R or 1S)-1-(2,3-dichlorophenyl)-2-[[2-(methylamino)-6-(3-methylimidazo[1,5-a]pyridin-6-yl)pyrimidin-4-yl]amino]ethanol] was greater than 1000 nM; that for `CC(C)CC(Nc1nc(N)nc(-c2ccc3cnn(C)c3c2)n1)c1c[nH]c(C(F)(F)F)n1` (single isomer, unassigned) [Example 180A, 6-(1-methylindazol-6-yl)-N4-[(1R or 1S)-3-methyl-1-[2-(trifluoromethyl)-1H-imidazol-4-yl]butyl]-1,3,5-triazine-2,4-diamine] was greater than 1000 nM.
With `Cc1ncc2ccc(-c3nc(N)nc(N[C@@H](c4c[nH]c(C(F)(F)F)n4)C(C)C)n3)cn12` (single isomer, unassigned) [Example 142A, 6-(3-methylimidazo[1,5-a]pyridin-6-yl)-N2-[(1R or 1S)-2-methyl-1-[2-(trifluoromethyl)-1H-imidazol-4-yl]propyl]-1,3,5-triazine-2,4-diamine], the IC50 was 1 to 500 nM.
The value for `CC[C@@H](Nc1nc(N)nc(-c2ccc3cnc(C)n3c2)n1)c1ccc(F)nc1` (single isomer, unassigned) [Example 141A, N2-[(1R or 1S)-1-(6-fluoro-3-pyridyl)propyl]-6-(3-methylimidazo[1,5-a]pyridin-6-yl)-1,3,5-triazine-2,4-diamine] was 500 to 1000 nM; that for `CC(C)CC(Nc1nc(N)nc(-c2ccc3cnn(C)c3c2)n1)c1c[nH]c(C(F)(F)F)n1` (single isomer, unassigned) [Example 180B, 6-(1-methylindazol-6-yl)-N4-[(1R or 1S)-3-methyl-1-[2-(trifluoromethyl)-1H-imidazol-4-yl]butyl]-1,3,5-triazine-2,4-diamine] was 1 to 500 nM; that for `Cc1ncc2ccc(-c3nc(N)nc(N[C@@H](CC4CC4)c4c[nH]c(C(F)(F)F)n4)n3)cn12` (single isomer, unassigned) [Example 7B, N4-[(1S or 1R)-2-cyclopropyl-1-[2-(trifluoromethyl)-1H-imidazol-4-yl]ethyl]-6-(3-methylimidazo[1,5-a]pyridin-6-yl)-1,3,5-triazine-2,4-diamine] was 1 to 500 nM.

The record behind these values is patent publication US20250352549A1, “SUBSTITUTED HETEROCYCLIC COMPOUND DERIVATIVES AND THEIR PHARMACEUTICAL USE” (AVELOS THERAPEUTICS INC., priority 0001, published 2025).
